Values quoted from earlier work, collected in patent US20040260072A1, “Hydrophilic, thiol-reactive cyanine dyes and conjugates thereof with biomolecules for fluorescence diagnosis” (priority 2003, published 2004).

Conditions: in DMSO; J Chem Eng Data 1977, 22, 379

Fluorescence quantum yield Q: 0.13
SMILES: CC1(C)C(/C=C/C=C/C=C/C=C2\N(CCCCS(=O)(=O)O)c3ccc4ccccc4c3C2(C)C)=[N+](CCCCS(=O)(=O)[O-])c2ccc3ccccc3c21 [Indocyanine Green]
